Data taken from ChEMBL document CHEMBL1143809, “New bis-N9-(methylphenylmethyl)purine derivatives: synthesis and antitumor activity” (2007).

Key:
Format in all cases: functional
IGROV-1 = assay: Growth inhibition of human IGROV1 cells after 48 hrs by SRB protein assay; conditions: IGROV-1, 48 h
UACC-257 = assay: Growth inhibition of human UACC257 cells after 48 hrs by SRB protein assay; conditions: UACC-257, 48 h
CAKI-1 = assay: Growth inhibition of human CAKI1 cells after 48 hrs by SRB protein assay; conditions: CAKI-1, 48 h
OVCAR-3 = assay: Growth inhibition of human OVCAR-3 cells after 48 hrs by SRB protein assay; conditions: OVCAR-3, 48 h
UACC-62 = assay: Growth inhibition of human UACC62 cells after 48 hrs by SRB protein assay; conditions: UACC-62, 48 h
OVCAR-8 = assay: Growth inhibition of human OVCAR8 cells after 48 hrs by SRB protein assay; conditions: OVCAR-8, 48 h
U-251 = assay: Growth inhibition of human U251 cells after 48 hrs by SRB protein assay; conditions: U-251, 48 h
PC-3 = assay: Growth inhibition of human PC3 cells after 48 hrs by SRB protein assay; conditions: PC-3, 48 h
MCF7 = assay: Anticancer activity against human MCF7 cells assessed as growth at 100 uM after 48 hrs by SRB protein assay relative to control; conditions: MCF7, 48 h, read-out: Activity
MOLT-4 = assay: Growth inhibition of human MOLT4 cells after 48 hrs by SRB protein assay; conditions: MOLT-4, 48 h
HCT-116 = assay: Growth inhibition of human HCT116 cells after 48 hrs by SRB protein assay; conditions: HCT-116, 48 h
[1] = Growth inhibition of human NCL-H23 cells after 48 hrs by SRB protein assay; conditions: NCL-H23, 48 h
RXF 393 = assay: Growth inhibition of human RXF393 cells after 48 hrs by SRB protein assay; conditions: RXF 393, 48 h
SW-620 = assay: Growth inhibition of human SW620 cells after 48 hrs by SRB protein assay; conditions: SW-620, 48 h
ACHN = assay: Growth inhibition of human ACHN cells after 48 hrs by SRB protein assay
TK-10 = assay: Growth inhibition of human TK10 cells after 48 hrs by SRB protein assay; conditions: TK-10, 48 h
K562 = assay: Growth inhibition of human K562 cells after 48 hrs by SRB protein assay; conditions: K562, 48 h
NCI/ADR-RES = assay: Growth inhibition of human NCI/ADR-RES cells after 48 hrs by SRB protein assay
EKVX = assay: Growth inhibition of human EKVX cells after 48 hrs by SRB protein assay
CCRF-CEM = assay: Growth inhibition of human CCRF-CEM cells after 48 hrs by SRB protein assay
SNB-75 = assay: Growth inhibition of human SNB75 cells after 48 hrs by SRB protein assay; conditions: SNB-75, 48 h
SF-539 = assay: Growth inhibition of human SF539 cells after 48 hrs by SRB protein assay; conditions: SF-539, 48 h
SK-MEL-5 = assay: Growth inhibition of human SK-MEL-5 cells after 48 hrs by SRB protein assay; conditions: SK-MEL-5, 48 h
SF-268 [2] = assay: Growth inhibition of human SF268 cells after 48 hrs by SRB protein assay; conditions: SF-268, 48 h
COLO 205 = assay: Growth inhibition of human COLO205 cells after 48 hrs by SRB protein assay; conditions: COLO 205, 48 h
[3] = Growth inhibition of human LOX MIVI cells after 48 hrs by SRB protein assay
BT-549 = assay: Growth inhibition of human BT549 cells after 48 hrs by SRB protein assay; conditions: BT-549, 48 h
SF-268 [4] = assay: Anticancer activity against human SF268 cells assessed as growth at 100 uM after 48 hrs by SRB protein assay relative to control; conditions: SF-268, 48 h, read-out: Activity
HOP-62 = assay: Growth inhibition of human HOP62 cells after 48 hrs by SRB protein assay; conditions: HOP-62, 48 h
NCI-H460 = assay: Growth inhibition of human NCL-H460 cells after 48 hrs by SRB protein assay; conditions: NCI-H460, 48 h
SK-MEL-28 = assay: Growth inhibition of human SK-MEL-28 cells after 48 hrs by SRB protein assay; conditions: SK-MEL-28, 48 h
HOP-92 = assay: Growth inhibition of human HOP92 cells after 48 hrs by SRB protein assay; conditions: HOP-92, 48 h
OVCAR-4 = assay: Growth inhibition of human OVCAR4 cells after 48 hrs by SRB protein assay; conditions: OVCAR-4, 48 h
[5] = read-out: LC50 (the source's name)

Structure (SMILES): Clc1nc(Cl)c2ncn(Cc3ccc(Cn4cnc5c(Cl)nc(Cl)nc54)cc3)c2n1
- GI50 (IGROV-1): 12.9 µM
- LC50 (50% lethal concentration) (IGROV-1): 50.1 µM
- TGI (IGROV-1): 25.1 µM
- TGI (UACC-257): 25.1 µM
- CC50 (UACC-257; [5]): 50.1 µM
- GI50 (CAKI-1): 15.8 µM
- TGI (CAKI-1): 30.2 µM
- CC50 (CAKI-1; [5]): 57.5 µM
- GI50 (OVCAR-3): 13.5 µM
- LC50 (OVCAR-3): 51.3 µM
- TGI (OVCAR-3): 26.3 µM
- GI50 (UACC-62): 13.8 µM
- LC50 (concentration killing 50% of cells) (UACC-62): 51.3 µM
- TGI (UACC-62): 26.9 µM
- GI50 (OVCAR-8): 3.02 µM
- LC50 (OVCAR-8): 49 µM
- TGI (OVCAR-8): 8.13 µM
- GI50 (U-251): 13.8 µM
- TGI (U-251): 26.9 µM
- CC50 (U-251; [5]): 51.3 µM
- GI50 (PC-3): 12.9 µM
- TGI (PC-3): 25.7 µM
- CC50 (PC-3; [5]): 50.1 µM
- growth at 100 µM (MCF7): 0%
- GI50 (MOLT-4): 7.94 µM
- LC50 (MOLT-4): 45.7 µM
- TGI (MOLT-4): 20.9 µM
- GI50 (HCT-116): 9.33 µM
- TGI (HCT-116): 21.4 µM
- CC50 (HCT-116; [5]): 46.8 µM
- GI50 [1]: 13.8 µM
- LC50 [1]: 51.3 µM
- TGI [1]: 26.9 µM
- GI50 (RXF 393): < 0.01 µM
- CC50 (RXF 393; [5]): 20.9 µM
- GI50 (SW-620): < 0.01 µM
- TGI (SW-620): 2.63 µM
- CC50 (SW-620; [5]): 8.31 µM
- GI50 (ACHN): 12.6 µM
- LC50 (ACHN): 50.1 µM
- TGI (ACHN): 25.1 µM
- GI50 (TK-10): 13.2 µM
- LC50 (50% lethal concentration) (TK-10): 51.3 µM
- TGI (TK-10): 26.3 µM
- GI50 (K562): 2.88 µM
- TGI (K562): 16.6 µM
- CC50 (K562; [5]): 40.7 µM
- GI50 (NCI/ADR-RES): 13.8 µM
- LC50 (NCI/ADR-RES): 60.2 µM
- TGI (NCI/ADR-RES): 28.8 µM
- GI50 (EKVX): < 0.01 µM
- LC50 (EKVX): 44.7 µM
- TGI (EKVX): 19.9 µM
- GI50 (CCRF-CEM): 10.2 µM
- TGI (CCRF-CEM): 22.9 µM
- CC50 (CCRF-CEM; [5]): 51.3 µM
- GI50 (SNB-75): < 0.01 µM
- TGI (SNB-75): 17 µM
- CC50 (SNB-75; [5]): 41.7 µM
- LC50 (SF-539): 37.1 µM
- TGI (SF-539): 13.8 µM
- GI50 (SK-MEL-5): 10.7 µM
- LC50 (SK-MEL-5): 47.9 µM
- TGI (SK-MEL-5): 22.9 µM
- GI50 (SF-268 [2]): 15.5 µM
- LC50 (SF-268 [2]): > 100 µM
- TGI (SF-268 [2]): 38.9 µM
- LC50 (COLO 205): 41.7 µM
- TGI (COLO 205): 17.4 µM
- GI50 [3]: 2.88 µM
- LC50 [3]: 41.7 µM
- TGI [3]: 17.4 µM
- GI50 (BT-549): < 0.01 µM
- TGI (BT-549): 19.1 µM
- CC50 (BT-549; [5]): 43.6 µM
- growth at 100 µM (SF-268 [4]): 58%
- LC50 (HOP-62): 51.3 µM
- TGI (HOP-62): 26.3 µM
- GI50 (NCI-H460): 14.1 µM
- TGI (NCI-H460): 26.9 µM
- CC50 (NCI-H460; [5]): 52.5 µM
- GI50 (SK-MEL-28): < 0.01 µM
- LC50 (SK-MEL-28): 42.6 µM
- TGI (SK-MEL-28): 18.2 µM
- LC50 (HOP-92): 57.5 µM
- TGI (HOP-92): 26.3 µM
- GI50 (OVCAR-4): 14.3 µM
- LC50 (OVCAR-4): 52.5 µM
- TGI (OVCAR-4): 27.5 µM
